Test results: patent US5932717A, “Methods of obtaining DNA-RNA hybrids from sturgeon milt” (priority 1994, dated 1999)

Key:
MT-4 cell = conditions: MT-4, 5 ug/ml
Experimental: (§1) The cells.--A continuous lymphoblast line of MT-4 cells was used in the study. The cells were propagated in a concentration of 0.2×10^6 cells/ml in RPMI-1640 medium with 15% fetal calf serum, 300 μg/ml L-glutamine and 100 μg/ml gentamycine. The cells were cultivated in suspension in 24-well plates of NUNCLON Company.
(§2) The viability of the cells was determined by staining with 0.4% trypan blue.
(§3) Cytotoxicity of the preparations was determined in 24-well plastic plates. Each well of the panel was filled with 1 ml of cell suspension in a concentration 0.2×10^6 cells/ml after which to different wells various doses of chemopreparations were added: 1600, 1000, and 400 μg/ml. After treatment of the cells with the chemopreparations the panels with the cells were placed into a thermostat and incubated at 37° C. in an atmosphere of 5% CO2 and 98% humidity for 3-5 days. At the end of this term the results were read by the number of live and dead cells in the individual wells of the plate.

in vitro = conditions: human, mt-4 cells
Experimental: as §1, §2, §3

With Cc1cn([C@H]2C[C@H](N=[N+]=[N-])[C@@H](CO)O2)c(=O)[nH]c1=O [Azidothymidine, azidothymidine] as the molecule, how does the “Cell concentration per ml × 10^6” value (MT-4 cell; cell control 0.56) read?
Its value is 0.16 per ml × 10^6.

And the Proliferation index (MT-4 cell; cell control 2.80)?
Its Proliferation index is 1.0.

And the viability (in vitro)?
The viability was 17.5%.
